The target of the experiment is T1, BACE1 (β-site APP-cleaving enzyme 1) (Homo sapiens, UniProt P56817).
T1 construct: human recombinant BACE1, baculovirus-expressed
As to the kind of experiment: FRET enzyme assay with recombinant BACE1; Dixon and Lineweaver-Burk kinetics (Ki […]). The format is biochemical.

Each structure is given as a SMILES string.

T1 sequence (P56817 46-457): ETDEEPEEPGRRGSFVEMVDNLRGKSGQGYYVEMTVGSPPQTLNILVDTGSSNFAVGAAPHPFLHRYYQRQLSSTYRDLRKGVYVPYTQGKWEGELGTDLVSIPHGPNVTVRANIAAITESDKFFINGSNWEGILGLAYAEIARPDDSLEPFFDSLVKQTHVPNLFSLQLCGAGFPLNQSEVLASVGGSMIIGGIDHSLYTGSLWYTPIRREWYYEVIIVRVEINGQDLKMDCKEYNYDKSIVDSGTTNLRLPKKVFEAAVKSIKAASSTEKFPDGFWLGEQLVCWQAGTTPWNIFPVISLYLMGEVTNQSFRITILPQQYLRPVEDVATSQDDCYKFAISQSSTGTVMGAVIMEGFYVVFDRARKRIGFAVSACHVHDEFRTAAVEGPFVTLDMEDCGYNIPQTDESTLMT

The term IC50 denotes the concentration at which inhibition is half-maximal. On to `COc1ccc(-c2coc3cc(O)cc(O)c3c2=O)cc1` [Biochanin A, 5,7-dihydroxy-3-(4-methoxyphenyl)chromen-4-one], for which the IC50 stood at 28 µM.

Source of the values: paper PMC5084024, “The Identification of Biochanin A as a Potent and Selective β-Site App-Cleaving Enzyme 1 (Bace1) Inhibitor” (Nutrients, 2016).
